The results in this text go back to patent US10959966B2, “Compositions and methods for modulating HEXM1 expression” (CASE WESTERN RESERVE UNIVERSITY, priority 2014, dated 2021).

In series [1] the test system is HEXIM1 expression in LNCaP prostate cancer cells. Kind of series: HEXIM1 expression by western blot in LNCaP cells treated with HMBA analogs. The format is cell-based. The following applies: LNCaP cells, 24 h, western blot normalized to β-actin; for HEXIM1 expression induction at lower concentration: analogs at 100 μM; for HEXIM1 expression compared to the vehicle treatment (cutoff 2.5 fold): analogs at 500 μM. The procedure: FIGS. 2(A-B) illustrate Western blots and a graph showing the effect of HMBA analogs on HEXIM1 expression. LNCaP cells were treated with vehicle, HMBA (5 mM) and its analogs at 500 μM for 24 h. Level of HEXIM1 (upper panel) and β-actin (lower panel) was analyzed by Western blot of cell extracts with HEXIM1 antibody and β-actin antibody respectively. The bands of HEXIM1 were quantified using ImageJ (NIH) and normalized to β-actin. The results are the representative of three independent experiments.
FIGS. 3(A-B) illustrate Western blots and a graph showing lower concentration of HMBA analogs on HEXIM1 expression. LNCaP cells were treated with vehicle, HMBA (5 mM) and identified analogs at 100 μM for 24 h. Level of HEXIM1 (upper panel) and β-actin (lower panel) was analyzed by Western blot of cell extracts with HEXIM1 antibody and β-actin antibody respectively. The bands of HEXIM1 were quantified using ImageJ (NIH) and normalized to β-actin. The results are the representative of three independent experiments.
FIGS. 4(A-B) illustrate Western blots and a graph showing dose-dependent study of compound 4a1 and HMBA on HEXIM1 expression. Level of HEXIM1 (upper panel) and β-actin (lower panel) was analyzed by Western blot of cell extracts with HEXIM1 antibody and β-actin antibody respectively.
HMBA analogs described herein can be synthesized based on the HMBA scaffold and then selected for their ability to induce HEXIM1 expression in an in vitro cell assay. For example, the synthesized HMBA analogs can be administered to cells, such as LNCaP prostate cancer cells, and the level of HEXIM1 in such cells can be measured using western blot analyses. The level of HEXIM1 expression of cells that are treated with a potential HMBA analog can be compared to control cells treated without the HMBA analog or with HMBA. Control cells (untreated or treated with HMBA) can be assigned a relative HEXIM1 expression value. Induction or promotion of HEXIM1 expression is achieved when the HEXIM1 expression relative to the control is increased at least about 1%, 5%, 10%, 15%, 20%, 30%, 50%, 75%, 100%, 200%, or more.
The synthesis of the symmetrical and unsymmetrical derivatives is described in Scheme 1 and 2, respectively. For the symmetrical analogs, moieties A and C were kept identical. Besides the acetyl group of HMBA, methanesulfonyl group, propionyl group or butyryl group were introduced. In addition, a bulky benzoyl group was introduced. The active proton in the amide moiety was replaced with methyl group to generate a series of analogs with lower solubility. For the moiety B, various linkers such as 1,3-propylene, […] 1,4-cyclohexylene, 1,4-phenylene-bis(methylene), 1,4-cyclohexylene-bis(methylene) were tested for optimization. For the unsymmetrical analogs, the A and B moieties were kept the same as HMBA while the C moiety was modified with aryl or alkyl amide. A total of 32 compounds were synthesized, and these compounds were examined for their potency to induce HEXIM1 in LNCaP prostate cancer cells. HMBA (5 mM) was used as a positive control.
(§1) Therefore, these three compounds were screened at lower concentrations.
A general note: A western blot detects proteins with antibodies after separation by electrophoresis.

Another series relates to LNCaP cells. Put plainly: Cell morphology after treatment, to exclude compounds causing cell toxicity. Particulars: 500 μM.
A short description of series [2]: Precipitation of compounds in cell culture. The format is physicochemical. Particulars: 500 μM. The procedure:
as §1
Some compounds were further evaluated at a lower concentration of 100 μM (FIG. 3). […] The variation in potency could be due to the precipitation of the two compounds at 500 μM, which hampers cell penetration. […] Due to the unsymmetrical structural characteristic of 4a1, a dose-dependent study was performed and the results are presented in FIG. 4.

On to `CCC(=O)NCCCCCCNC(=O)CC` [Compound 2a4], for which the “HEXIM1 expression induction at lower concentration” value in series [1] was “reduced activity”. For the compound `CCCC(=O)NCCCCCCNC(=O)CCC` [Compound 2a5], the “HEXIM1 expression induction at lower concentration” value in series [1] is listed as “reduced activity”. As for `CC(=O)NCC1CCC(CNC(C)=O)CC1` (stereo not shown) [Compound 2c1], the “Cell morphology after the treatment” value with LNCaP cells is listed as “cell morphology slightly changed”. The “HEXIM1 expression compared to the vehicle treatment (cutoff 2.5 fold)” value (“HEXIM1 expression … (cutoff 2.5 fold)” for short) in series [1] is listed as “reached this cutoff”. Consider `CC(=O)NC1CCC(NC(C)=O)CC1` (stereo not shown) [Compound 2d1], for which the “HEXIM1 expression induction at lower concentration” value in series [1] is listed as “not able to induce HEXIM1 expression”. For the compound `CS(=O)(=O)NCCCNS(C)(=O)=O` [Compound 2f2], the “HEXIM1 expression induction at lower concentration” value in series [1] is on record as “not able to induce HEXIM1 expression”. As for `CN(CCCCCCN(C)S(C)(=O)=O)S(C)(=O)=O` [Compound 3a2], the “Precipitation during the treatment” value in series [2] was “precipitation”. Moreover, in series [1], the “HEXIM1 expression induction at lower concentration” value is “significant activity” and the “HEXIM1 expression … (cutoff 2.5 fold)” value is on record as “did not reach the cutoff”. Consider `CC(=O)N(C)Cc1ccc(CN(C)C(C)=O)cc1` [Compound 3b1], for which the “HEXIM1 expression induction at lower concentration” value in series [1] was 3.8 fold. Turning to `CN(Cc1ccc(CN(C)S(C)(=O)=O)cc1)S(C)(=O)=O` [Compound 3b2], the “HEXIM1 expression induction at lower concentration” value in series [1] turned out to be 2 fold.

Turning to `CN(CC1CCC(CN(C)S(C)(=O)=O)CC1)S(C)(=O)=O` (stereo not shown) [Compound 3c2], in series [1], the “HEXIM1 expression induction at lower concentration” value is reported as “not able to induce HEXIM1 expression”.

As for `CC(=O)N(C)C1CCC(N(C)C(C)=O)CC1` (stereo not shown) [Compound 3d1], the “HEXIM1 expression induction at lower concentration” value in series [1] is recorded as “not able to induce HEXIM1 expression”. Turning to `CN(C1CCC(N(C)S(C)(=O)=O)CC1)S(C)(=O)=O` (stereo not shown) [Compound 3d2], the “Precipitation during the treatment” value in series [2] is recorded as “precipitation”. Besides, in series [1], the “HEXIM1 expression induction at lower concentration” value is “significant activity” and the “HEXIM1 expression … (cutoff 2.5 fold)” value is given as “did not reach the cutoff”. On to `CN(CCCN(C)S(C)(=O)=O)S(C)(=O)=O` [Compound 3f2], for which the “Precipitation during the treatment” value in series [2] is “precipitation”. Further, in series [1], the “HEXIM1 expression induction at lower concentration” value is reported as “not able to induce HEXIM1 expression” and the “HEXIM1 expression … (cutoff 2.5 fold)” value is “did not reach the cutoff”.

Take `COc1ccc(C(=O)NCCCCCCNC(C)=O)cc1` [Compound 4a3]: the “HEXIM1 expression … (cutoff 2.5 fold)” value in series [1] is listed as “reached this cutoff”.

Take `CC(=O)NCCCCCCNC(=O)c1ccc(-c2ccccc2)cc1` [Compound 4a4]: in series [1], the “HEXIM1 expression induction at lower concentration” value is given as “not able to induce HEXIM1 expression” and the “HEXIM1 expression … (cutoff 2.5 fold)” value is “did not reach the cutoff”.
